Results taken from patent publication US6030955A, “Methods of affecting intracellular phosphorylation of tyrosine using phosphorothioate oligonucleotides, and antiangiogenic and antiproliferative uses thereof” (The Trustees of Columbia University in The City of New York …, priority 1996, dated 2000).

System: cell surface flk-1
Test: FACS analysis of blockade of anti-flk-1 MAb binding to C441 cells
Parameters: species or system mouse/human
Conditions: cells preincubated with 10 μg/ml heparin
Method: For binding studies, C441 cells were removed with 2 mM EDTA in PBS, washed with cold Hanks balanced salt solution supplemented with 1% BSA (HBSS-BSA) and then resuspended in 100 μl of the same buffer at a concentration of 1 million cells per sample. Where indicated, cells were incubated with 2 μM oligodeoxynucleotides of 10 μg/ml heparin. After a 30 minute incubation on ice, cells were washed and reincubated for 30 minutes with 10 μg of the appropriate MAb. After washing, a 1:40 dilution of goat anti-mouse lgG conjugated to FITC (TAGO) was added for a final 30 minute incubation on ice. Cells were then analyzed on a Coulter Epics Elite Cytometer.

Substance: heparin
- binding of anti-flk-1 MAb 73 to C441 cells: inhibition
- binding of anti-flk-1 MAb 115 to C441 cells: inhibition
